Assay results as given in ChEMBL document CHEMBL1145507, “X-ray structural analysis of Plasmodium falciparum enoyl acyl carrier protein reductase as a pathway toward the optimization of triclosan antimalarial efficacy” (J Biol Chem, 2007).
pEC50, pIC50: −log10 of the molar value.

Assays:
Plasmodium falciparum [1] = experiment: Antimalarial activity against Plasmodium falciparum 3D7 by reduced [3H]hypoxanthine uptake; format: functional, organism-based
[2] = biological target: T1, Enoyl-acyl-carrier protein reductase (Plasmodium falciparum, UniProt Q965D5); experiment: Inhibition of Plasmodium falciparum ENR
T1 sequence (Q965D5 whole entry): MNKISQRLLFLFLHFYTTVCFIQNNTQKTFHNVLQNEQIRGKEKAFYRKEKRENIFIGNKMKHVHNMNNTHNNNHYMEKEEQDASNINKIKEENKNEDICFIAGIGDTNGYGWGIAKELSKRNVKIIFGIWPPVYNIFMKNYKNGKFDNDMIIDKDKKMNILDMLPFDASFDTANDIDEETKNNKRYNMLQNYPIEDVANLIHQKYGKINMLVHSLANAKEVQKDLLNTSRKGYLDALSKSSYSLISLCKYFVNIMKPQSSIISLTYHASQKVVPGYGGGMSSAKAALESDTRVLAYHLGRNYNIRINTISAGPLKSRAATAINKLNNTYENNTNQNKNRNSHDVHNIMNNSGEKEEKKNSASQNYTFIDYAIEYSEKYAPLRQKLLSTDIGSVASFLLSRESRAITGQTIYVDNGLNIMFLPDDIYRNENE

Plasmodium falciparum [3] = experiment: Antimalarial activity against Plasmodium falciparum Dd2 by reduced [3H]hypoxanthine uptake; format: functional, organism-based
Plasmodium falciparum [4] = experiment: Antimalarial activity against Plasmodium falciparum 3D7; format: functional, organism-based
Plasmodium falciparum [5] = experiment: Antimalarial activity against Plasmodium falciparum Dd2; format: functional, organism-based
Plasmodium falciparum [6] = experiment: Antimalarial activity against Plasmodium falciparum Dd2 expressing katG; format: functional, organism-based
Plasmodium falciparum [7] = experiment: Antimalarial activity against Plasmodium falciparum 3D7 expressing katG; format: functional, organism-based

Structure (SMILES) | pEC50 (Plasmodium falciparum [1]) | pIC50 [2] | pEC50 (Plasmodium falciparum [3]) | pIC50 (Plasmodium falciparum [4]) | pIC50 (Plasmodium falciparum [5]) | pIC50 (Plasmodium falciparum [6]) | pIC50 (Plasmodium falciparum [7])
O=C(O)c1ccc(Oc2ccc(Cl)cc2Cl)c(O)c1 | < 4.00 | < 4.00 | < 4.00 | – | – | – | –
N#Cc1ccc(Oc2ccc(-c3ccncc3)cc2O)c(Cl)c1 | 4.96 | 5.55 | 4.96 | – | – | – | –
Cc1ccc(Oc2ccc(Cl)cc2Cl)c(O)c1 | 5.00 | 6.70 | 4.85 | – | – | – | –
N#Cc1ccc(Oc2ccc(-c3ccccn3)cc2O)c(Cl)c1 | 5.09 | 6.15 | 4.92 | – | – | – | –
Oc1cc(-c2cccnc2)ccc1Oc1ccc(Cl)cc1Cl | 4.64 | 4.48 | 4.41 | – | – | – | –
Oc1cc(-c2ccccc2)ccc1Oc1ccc(Cl)cc1Cl | 5.64 | 6.85 | 5.41 | – | – | – | –
CCC(C)Cc1ccc(Oc2ccc(Cl)cc2Cl)c(O)c1 (configuration not stated) | 5.70 | 6.54 | 5.54 | – | – | – | –
Oc1cc(-c2nn[nH]n2)ccc1Oc1ccc(Cl)cc1Cl | < 4.00 | < 4.00 | < 4.00 | – | – | – | –
Oc1cc(CCCc2ccccc2)ccc1Oc1ccc(Cl)cc1Cl | 5.19 | 6.36 | 5.14 | – | – | – | –
Oc1cc(CCc2ccccc2)ccc1Oc1ccc(Cl)cc1Cl | 5.25 | 7.12 | 4.96 | – | – | – | –
N#Cc1ccc(Oc2ccc(Cl)cc2Cl)c(O)c1 | 4.72 | 7.31 | 4.66 | – | – | – | –
NC(=O)c1ccc(Oc2ccc(Cl)cc2Cl)c(O)c1 | 4.40 | 4.68 | 4.35 | – | – | – | –
Oc1cc(Cc2ccccn2)ccc1Oc1ccc(Cl)cc1Cl | 5.12 | 6.19 | 4.89 | – | – | – | –
Oc1cc(Cc2cccnc2)ccc1Oc1ccc(Cl)cc1Cl | 5.16 | 6.08 | 4.96 | – | – | – | –
CCc1ccc(Oc2ccc(Cl)cc2Cl)c(O)c1 | 5.34 | 6.96 | 5.22 | – | – | – | –
Cc1cccc(-c2ccc(Oc3ccc(Cl)cc3Cl)c(O)c2)c1 | 5.46 | 6.64 | 5.21 | – | – | – | –
Oc1cc(-c2ccc(F)cc2)ccc1Oc1ccc(Cl)cc1Cl | 5.68 | 7.42 | 5.51 | – | – | – | –
CC(C)CCc1ccc(Oc2ccc(Cl)cc2Cl)c(O)c1 | 5.13 | 6.92 | 5.10 | – | – | – | –
CC(C)Cc1ccc(Oc2ccc(Cl)cc2Cl)c(O)c1 | 5.70 | 6.74 | 5.55 | – | – | – | –
Cc1ccccc1-c1ccc(Oc2ccc(Cl)cc2Cl)c(O)c1 | 5.80 | 6.36 | 5.60 | – | – | – | –
Cc1ccccc1-c1ccc(Oc2ccc(C#N)cc2Cl)c(O)c1 | 5.59 | 6.39 | 5.48 | – | – | – | –
CCCc1ccc(Oc2ccc(Cl)cc2Cl)c(O)c1 | 5.60 | 6.68 | 5.52 | – | – | – | –
CCCCc1ccc(Oc2ccc(Cl)cc2Cl)c(O)c1 | 5.46 | 6.32 | 5.49 | – | – | – | –
Oc1cc(Cc2ccccc2)ccc1Oc1ccc(Cl)cc1Cl | 4.96 | 7.15 | 4.92 | – | – | – | –
Cc1ccc(-c2ccc(Oc3ccc(Cl)cc3Cl)c(O)c2)cc1 | 5.54 | 6.72 | 5.37 | – | – | – | –
Oc1cc(CC2CCCCC2)ccc1Oc1ccc(Cl)cc1Cl | 5.47 | 6.28 | 5.32 | – | – | – | –
N#Cc1ccc(Oc2ccc(Cc3ccncc3)cc2O)c(Cl)c1 | 5.13 | 6.28 | 4.89 | – | – | – | –
NNC(=O)c1ccncc1 [ISONIAZID] | – | – | – | 2.92 | 2.74 | 2.74 | 2.92
Oc1cc(Cl)ccc1Oc1ccc(Cl)cc1Cl [TRICLOSAN] | 5.55 | – | 5.42 | – | – | – | –
